Data on six molecules can be found in US20230092846A1, “COMBINATION FOR THE TREATMENT OF CANCER AND APPLICATION THEREOF” (EVERFRONT BIOTECH INC., priority 2020, published 2023).

Values after ≈ are worked out from the molar mass of the structure shown. Like-named read-outs stand apart in the source and are kept apart here. Some results are limits rather than exact numbers.

For orientation: IC50 means the point on the concentration scale where inhibition reaches its midpoint.

Assay [1] has as its system PANC-1 cells. The assay is described as follows: MTT cell viability analysis, single agents, PANC-1. It counts as cell-based, human. The method, then: (§1) In this example, the effects of the compound of the present invention and different anticancer medicaments on killing cancer cells were studied by MTT (Thiazolyl Blue tetrazolium bromide, 3-[4,5-dimethylthiahiazo-2-yl]-[…] bromide) cell viability analysis.
(§2) Thereafter, each of the aforesaid cell lines was cultured with cell medium containing gemcitabine, cisplatin, 5-fluorouracil, irinotecan, oxaliplatin, paclitaxel, (Z)-n-butylidenephthalide, (E)-n-butylidenephthalide, 2-pentanolybenzoic acid, sodium 2-pentanoylbenzoate, and butylphthalide, for 24 hours, 48 hours and 72 hours, respectively.

Assay [2] deals with Panc02 cells. In words: MTT cell viability analysis, single agents, Panc02. The format is cell-based, mouse. How it is done:
as §1, §2

The test system of assay [3] is AsPC-1 cells. In words: MTT cell viability analysis, single agents, AsPC-1. The format is cell-based, human. How it is done: as §1, §2
In assay [4] the test system is Mia-PaCa2 cells. In words: MTT cell viability analysis, single agents, Mia-PaCa2. It counts as cell-based, human. The method, then: as §1, §2
In assay [5] the test system is HepG2 cell. In words: MTT cell viability analysis, single agents, HepG2. The conditions noted are these: cultured 24, 48 and 72 hours (time of IC50 not given). It counts as cell-based. How it is done: as §1
(§3) Thereafter, each of the aforesaid cell lines were cultured with cell medium containing 5-fluorouracil, (Z)-n-butylidenephthalide, and 2-pentanolybenzoic acid for 24 hours, 48 hours and 72 hours.

Assay [6] has as its system A549 cell. In words: MTT cell viability analysis, single agents, A549. The format is cell-based. The conditions noted are these: cultured 24, 48 and 72 hours (time of IC50 not given). How it is done:
as §1, §3

Assay [7] relates to DBTRG-05MG cell. In words: MTT cell viability analysis, single agents, DBTRG-05MG. The format is cell-based. As to conditions: cultured 24, 48 and 72 hours (time of IC50 not given). The method, then:
as §1, §3

Assay [8] deals with HT-29 cell. The assay is described as follows: MTT cell viability analysis, single agents, HT-29. The conditions noted are these: cultured 24, 48 and 72 hours (time of IC50 not given). The format is cell-based. How it is done: as §1, §3
For assay [9], the system named is Panc02 cells pancreatic tumor. The assay is described as follows: Survival of mice with orthotopic Panc02 pancreatic cancer. The format is in vivo, C57BL/6J mouse. The conditions noted are these: for Fold (as compared to Ctl. group): survival. How it is done:
(§4) According to the requirements of Institutional Animal Care and Use Committee (IACUC) of Dong Hwa University, C57BL/6J mice were feed in the experimental animal center of Dong Hwa University until 8 to 10 weeks old. Then, the stably constructed Panc02 cells transfected by Luc-eGFP were in-situ injected into the mice pancreases (1×10^6 cells/0.02 ml/mouse). Thereafter, the tumor sizes of mice pancreases were analyzed through the animal imaging results, and the mice were equally divided into nine group depending on their tumor sizes and treated by the following conditions for three to four weeks:
(1) “Control (Ctl.)” group (5 mice): untreated, only orally administering vehicle (containing none of the compound of the present invention and other anticancer medicaments) every day.
(2) “LD” group (5 mice): orally administering a low dose (12.5 mg/kg body weight) of (Z)-n-butylidenephthalide every day.
(3) “HD” group (5 mice): orally administering a high dose (25 mg/kg body weight) of (Z)-n-butylidenephthalide every day.
(4) “Gem” group (5 mice): intraperitoneally injecting 100 mg/kg body weight of gemcitabine (GEM) per three days.
(5) “LD+Gem” group (5 mice): orally administering 12.5 mg/kg body weight of (Z)-n-butylidenephthalide every day, and intraperitoneally injecting 50 mg/kg body weight of gemcitabine (GEM) per three days.
(6) “TS-1” group (5 mice): after orally administering 100 mg/kg body weight of TS-1 every day for five continuous days, stopping the oral administration of TS-1 for two days.
According to the method of Example 4-1, the pancreatic cancer mice were established and the survivals of mice in each group were observed and recorded every day. The results are shown in Table 15 and FIG. 5A to FIG. 5D.

Assay [10] relates to PD-L1 protein. In words: Western Blotting of pancreatic tumor tissue, PD-L1. It counts as in vivo, C57BL/6J mouse. As to conditions: FIG. 6, group regimens. The method, then: as §4
(§5) After accomplishing the observations of Examples 4-2 to 4-3, the mice in each group were sacrificed and the tissues of pancreatic tumor thereof were collected to extracting proteins. Then, the expressions of CD44 protein, CD44ICD protein, PD-1 protein, PD-L1 protein, p-Akt protein, and Akt protein in the protein sample of each group were detected by Western Blotting. Furthermore, the expression of GAPDH protein serves as an internal control.
Background: Immunoblotting shows a protein as a band on a membrane.

The test system of assay [11] is PD-1 protein. The assay is described as follows: Western Blotting of pancreatic tumor tissue, PD-1. It counts as in vivo, C57BL/6J mouse. The conditions noted are these: FIG. 6, group regimens. How it is done:
as §4, §5

Assay [12] deals with Panc02 cells pancreatic tumor. In words: Orthotopic Panc02 pancreatic tumor, tumor size by T2-weighted MRI. It counts as in vivo, C57BL/6J mouse. The conditions noted are these: fifteenth day, 14 days of treatment; group regimens; FIG. 3. How it is done: as §4
(1) “Control (Ctl.)” group (5 mice): untreated, only orally administering vehicle (containing none of the compound of the present invention and other anticancer medicaments) every day. […]
The stably constructed Panc02 cells transfected by Luc-eGFP were in-situ injected into the mice of each group of Example 4-1, and after determining the growth of in-situ pancreatic tumor, the medicament treatments were conducted for 14 days (i.e., the fifteenth day). In this duration, the pancreatic tumors of mice in each group were analyzed and observed by T2-weighted MRI and taken pictures for records. The tumor (a portion circled by a dotted line) sizes of mice of each group in FIG. 2 were analyzed by amide software.

Assay [13] relates to CD44ICD protein. The assay is described as follows: Western Blotting of treated Panc02 cells, CD44ICD. As to conditions: FIG. 1. It counts as cell-based, mouse. The method, then:
(§6) The Panc02 cells (pancreatic cancer cell line) were cultured with 37.5 and 75 μg/ml of (Z)-n-butylidenephthalide for 6 hours (a portion of cells were harvested after culturing for 3 hours), respectively. Thereafter, proteins of the cells were extracted, and the expressions of CD44 intracellular domain (CD44ICD) protein and PD-L1 protein in the cancer cells treated with (Z)-n-butylidenephthalide were measured by Western Blotting. Furthermore, the expression of GAPDH protein was measured as an internal control.

In assay [14] the test system is PD-L1 protein. The assay is described as follows: Western Blotting of treated Panc02 cells, PD-L1. The format is cell-based, mouse. As to conditions: 37.5 and 75 μg/ml, 3 and 6 hours, FIG. 1. The method, then: as §6
[15] abbreviates: MTT, cultured 24, 48 and 72 hours (time of IC50 not given).
[16] abbreviates: AsPC-1, MTT, cultured 24, 48 and 72 hours (time of IC50 not given).
The mark [17] stands for this setting: Mia-PaCa2, MTT, cultured 24, 48 and 72 hours (time of IC50 not given).
Setting [18] is: Homo sapiens, MTT, cultured 24, 48 and 72 hours (time of IC50 not given), read-out: IC50.
[19] abbreviates: Mus musculus, MTT, cultured 24, 48 and 72 hours (time of IC50 not given), read-out: IC50.
The mark [20] stands for this setting: Homo sapiens, ASPC1, AsPC-1, MTT, cultured 24, 48 and 72 hours (time of IC50 not given), read-out: IC50.
Setting [21] is: Homo sapiens, MIA PaCa-2, Mia-PaCa2, MTT, cultured 24, 48 and 72 hours (time of IC50 not given), read-out: IC50.
Where [22] appears, read: Gem group: 100 mg/kg intraperitoneally per three days.
Where [23] appears, read: HD group: 25 mg/kg orally every day.
The mark [24] stands for this setting: LD group: 12.5 mg/kg orally every day.

Turning to `N.N.[Cl][Pt][Cl]` [cisplatin, Cisplatin], the IC50 worked out at 35.87 ± 1.23 µg/mL in [1] (setting [15]), 53.36 ± 1.74 µg/mL in assay [2] (setting [15]), 21.56 ± 1.05 µg/mL in assay [3] (setting [16]) and 32.86 ± 1.08 µg/mL in assay [4] (setting [17]).

For the molecule `CCCCC1OC(=O)c2ccccc21` (stereo not drawn) [butylphthalide, Butylphthalide], the IC50 is more than 200 µg/mL in [1] (setting [15]), more than 300 µg/mL in assay [3] (setting [16]) and 198.9 ± 7.69 µg/mL (≈ 1050 µM) in assay [4] (setting [17]).

For `O=c1[nH]cc(F)c(=O)[nH]1` [5-fluorouracil, reference compound], the 50% inhibitory concentration (IC50) in assay [5] (Homo sapiens, read-out: IC50) is 4.44 ± 0.25 µg/mL (≈ 34.1 µM); in assay [6] (Homo sapiens, read-out: IC50), 8.55 ± 0.22 µg/mL (≈ 65.7 µM); in [1] (setting [18]) it was 8.45 ± 0.35 µg/mL (≈ 65 µM); in assay [7] (Homo sapiens, read-out: IC50), 55.5 ± 6.1 µg/mL (≈ 426 µM); in [2] (setting [19]), 0.0673 µg/mL (≈ 0.517 µM); in [3] (setting [20]), 25.4 ± 3.91 µg/mL (≈ 195 µM). In addition, the half-maximal inhibitory concentration (IC50) in assay [8] (Homo sapiens, read-out: IC50) is 20.8 ± 0.91 µg/mL (≈ 160 µM); in [4] (setting [21]), 4.9 ± 0.27 µg/mL (≈ 37.7 µM).

On to 2-pentanolybenzoic acid, for which the IC50 stood at 1141.5 ± 0.01 µg/mL in assay [5]; 795.5 ± 0.02 µg/mL in assay [6]; 980.5 ± 22.64 µg/mL in [1] (setting [15]); 392.8 ± 0.01 µg/mL in [7]; 769.9 ± 15.13 µg/mL in assay [2] (setting [15]); 490.2 ± 19.69 µg/mL in [3] (setting [16]). Besides, the values for the IC50 in [8] and in assay [4] (setting [17]) were 443.8 ± 0.04 µg/mL and 693.5 ± 19.57 µg/mL, respectively.

For the molecule `Nc1ccn([C@@H]2O[C@H](CO)[C@@H](O)C2(F)F)c(=O)n1` [gemcitabine, Gemcitabine], the “Average of overall survival” value in [9] (setting [22]) was found to be 31.7 ± 1.023 days. Besides, the “Median of overall survival” value in assay [9] (setting [22]) was 30 days. The “Fold (as compared to Ctl. group)” value in assay [9] (setting [22]) worked out at 1.8. Moreover, the “expression of PD-L1 protein in pancreatic tumor tissue” value in [10] was “more than that of the untreated “Control” group”. Besides, the half-maximal inhibitory concentration (IC50) is 1.53 ± 0.3 µg/mL (≈ 5.81 µM) in [1] (setting [18]), 0.00377 µg/mL (≈ 0.0143 µM) in assay [2] (setting [19]), 6.56 ± 0.82 µg/mL (≈ 24.9 µM) in assay [3] (setting [20]) and 0.85 ± 0.36 µg/mL (≈ 3.23 µM) in [4] (setting [21]). Also, in assay [11], the “expression of PD-1 protein in pancreatic tumor tissue” value is reported as “more than that of the untreated “Control” group”. The “tumor size (T2-weighted MRI)” value in assay [12] was “bigger than that of untreated “Control” group”.

For the molecule `CCC/C=C1\OC(=O)c2ccccc21` [(Z)-n-butylidenephthalide], the “Average of overall survival” value in [9] (setting [23]) came out at 27.2 ± 0.533 days; in [9] (setting [24]), 30.6 ± 2.205 days. In addition, the “Median of overall survival” value in assay [9] (setting [23]) was 27 days; in assay [9] (setting [24]), 30 days. In assay [9] (setting [24]), the “survival days compared to Control group and TS-1 group” value is “more than that of “Control” group”. Besides, the “Fold (as compared to Ctl. group)” value in assay [9] (setting [23]) is 1.6; in [9] (setting [24]), 1.8. Moreover, the “expression of CD44ICD protein” value in assay [13] (37.5 and 75 μg/ml, 3 and 6 hours) was “decreased as the concentration of (Z)-n-butylidenephthalide was increased”. For the same molecule, the “expression of CD44ICD protein at 6 hours” value in assay [13] (6 hours) is “completely inhibited”. Further, the IC50 was 81.1 ± 0.02 µg/mL (≈ 431 µM) in [5] (Homo sapiens, read-out: IC50); 63.6 ± 0.06 µg/mL (≈ 338 µM) in assay [6] (Homo sapiens, read-out: IC50); 41.2 ± 2.81 µg/mL (≈ 219 µM) in assay [1] (Homo sapiens); 133 µg/mL (≈ 704 µM) in [7] (Homo sapiens, read-out: IC50); 32.9 ± 2.33 µg/mL (≈ 175 µM) in assay [2] (Mus musculus); 83.3 ± 2.56 µg/mL (≈ 443 µM) in assay [3] (Homo sapiens, ASPC1). Also, the IC50 in [8] (Homo sapiens, read-out: IC50) was found to be 52.9 ± 0.01 µg/mL (≈ 281 µM); in assay [4] (Homo sapiens, MIA PaCa-2) it was 55.9 ± 1.35 µg/mL (≈ 297 µM). In addition, the “expression of PD-L1 protein” value in assay [14] was “decreased as the concentration of (Z)-n-butylidenephthalide was increased”.
